Measurements as given in publication PMC11637483, “Dissecting caspase-2-mediated cell death: from intrinsic PIDDosome activation to chemical modulation” (Protein & Cell, 2024).

Legend:
Hepa1-6 cells = experiment: Cell death and caspase-2 processing in Hepa1-6 cells; type: cell-based, mouse; details: Hepa1-6, 8 h
From the text: We further examined whether HUHS015-derived compounds could activate endogenous caspase-2 in human cells. […] Complementing the CASP2^−/− Jurkat cells with exogenous caspase-2 restored HUHS015-36-induced apoptosis, in which caspase-2 was expectedly processed (Fig. 5A and 5B). We also profiled caspase-2 expression in a panel of 10 mouse tumor cell lines and observed highly variable expression levels (Fig. 5C). […] In B16-F10 (melanoma), LLC1 (Lewis lung carcinoma), MB49 (bladder carcinoma), KPC (pancreatic ductal adenocarcinoma), and 4T1 (mammary carcinoma) cells, caspase-2 was expressed at much lower levels (Fig. 5C). In contrast, EMT6 (mammary carcinoma), EL4 (T lymphoblast), and Hepa1-6 (hepatoma) feature robust caspase-2 expression, much higher than in Jurkat cells (Fig. 5C).
Figure 5. HUHS015-36 activates endogenous caspase-2 to induce apoptosis in Jurkat cells but not mouse cells. (A and B) HUHS015-36 activates endogenous caspase-2 and induces apoptosis in human Jurkat cells. […] Lysates of 10 mouse cancer cell lines were analyzed by immunoblotting using indicated antibodies. […] ATP cell viability (A and D) is expressed as mean ± s.d. from three technical replicates. […]
Cell viability was measured by the ATP assay using the CellTiter-Glo® Luminescent Cell Viability Assay kit (Promega).

[1] = test system: HeLa-CASP2−/−CASP3−/−GSDMD−/− (TKO) cells; experiment: Cell death in control HeLa triple knockout cells without active caspase-2; type: cell-based, human
From the text: Specific chemical compounds are powerful tools for dissecting target-related signaling mechanisms in biological contexts ([Beck et al., 2022]; [Zhang et al., 2012]). Prompted by this notion and possibly to identify a compound that could activate the PIDDosome, we designed a cell death-based high-throughput chemical screen in HeLa cells, in which a triple knockout of CASP2, CASP3, and GSDMD were constructed. CASP3 and GSDMD deficiency served as the background to minimize compound-induced nonspecific cytotoxicity and undesired pyroptosis. Using the triple knockout cells as the control, additional expression of exogenous caspase-2 allows the identification of compounds that can specifically activate the caspase-2-BID pathway and trigger apoptosis through caspase-7. […]
Figure 3. […] The ratios of the cell viability between the two groups are calculated with 3 as a cutoff for positive compound hit selection. […] Processing of caspase-2, -3, and -7 was analyzed by immunoblotting. […] ATP-based cell viability in panels (B and D) is expressed as mean ± s.d. from three technical replicates. […]
Drug-related Screening Library (25 × 384-well plate, more than 7,000 compounds) was used for the chemical screen in the TKO HeLa cells rescued with exogenous caspase-2 expression. […] After treatment for 12 h, the cell viability was measured by the ATP assay. […]

SMILES | caspase-2 processing and cell death (Hepa1-6 cells) | cell death ([1]; TKO cells expressing protease-deficient caspase-2 C320A) | cell death selectivity, caspase-2-expressing vs control TKO cells ([1]; chemical screen, 12 h)
Cc1cccc2nc(-n3nc4c(c3O)CCCC4)[nH]c12 [HUHS015-36] | no caspase-2 processing and cell death were detected |  | 
Cc1ccc2nc(-n3nc(C)c(Cc4ccccc4)c3O)[nH]c2c1 [HUHS015] |  | no cell death | robust cell death selectively in caspase-2-expressing but not the control triple knockout cells
